Source: patent US20110190155A1 (Korea Institute of Science and Technology, priority 2007, published 2011)

Experiments:
in vitro = format: cell-based; conditions: human
Protocol: BEAS-2B (CRL-9609, ATCC, USA), a human bronchial epithelial cell line, was cultured in a T 75 flask containing DMEM (Gibco-BRL, USA) supplemented with 10% FBS at the concentration of 5×10^5 cells/ml. […] The concentration of the vehicle was less than 0.1% in every experiment.
MTT assay with the BEAS-2B cell line was performed according to the method of Mossman et al (J. Immunol. Methods, 65, 55-63, 1983). […] 48 hours later, MTT (3-[4,5-dimethylthiazol-2-yl]-2,5-diphenyltetra zolium bromide) 5 mg/ml was added at the concentration of 5 mg/ml, followed by culture at 37° C. for 3 hours. Then, medium was eliminated and generated formazan crystal was dissolved in 500 μl of DMSO. The solution was aliquoted in a 96 well-plate and OD540 was measured.

[1] = cited from earlier work
[2] = patients treated with amiodarone

Protocol for BEAS-2B cells: Total RNA was extracted from the cells using trizol reagent (Invitrogen life technologies, USA) according to the manufacturer's instruction and the extracted RNA was purified by using RNeasy mini kit (Qiagen, USA). The genomic DNA was eliminated during the purification of RNA using RNase-free DNase set (Qiagen, USA). The total RNA was quantified by spectrophotometer and purity was measured by Agilent 2100 Bioanalyzer (Agilent Technologies, USA).
30 μg of the total RNA and 2 μg (1 μg/μl) of oligo (dT) primer were mixed, followed by reaction for 10 minutes at 65° C. Then, the reaction mixture was put in ice, followed by annealing.
At this time, the two samples were mixed and purified by Microcon YM-30 column (Millipore, USA).
Hybridization and washing were performed according to the instruction of GeneCneck Co., Ltd. Hybridization was performed in a 62° C. oven for 12 hours. At this time, 44 k whole human genome oligo microarray (Agilent, USA) was used as a DNA microarray chip. […]
Scanning of the hybridized images on the slide was performed by using Genepix 4000B (Axon Instruments, USA). Fluorescence images of the chip washed to eliminate non-binding genes were obtained by laser fluorescence scanner. […] The scanned images were analyzed by GenePix 4.1 software (Axon Instruments, USA) to calculate the gene expression rate.

CCCCc1oc2ccccc2c1C(=O)c1cc(I)c(OCCN(CC)CC)c(I)c1 [amiodarone]
IC20 at 48 h (in vitro): 29.4 µM | patients exhibiting boredom, fatigue, tremor, walking difficulty and peripheral neuropathy [1, 2]: 20-40% | patients showing gastrointestinal disorder, nausea, vomiting, constipation and loss of appetite [1, 2]: Approximately 25% | patients treated with amiodarone exhibiting side effects ([1]; patients): approximately 50% | genes identified to be up-regulated (BEAS-2B cells; 44 genes out of 44,290 genes, Cy5/Cy3 more than 2.0 fold): 0.1% | genes identified to be down-regulated (BEAS-2B cells; 45 genes out of 44,290 genes, Cy5/Cy3 less than 0.5 fold): 0.10%
